From BindingDB's records for doi:10.1021/jm030905y (Vrije Universiteit, 2003)

Biological target: Histamine H4 receptor (Homo sapiens, UniProt Q9H3N8)
Assay: Inhibitory activity measured by [3H]- N alpha- methyl-histamine binding to membranes of SK-N-MC cells expressing the human Histamine H4 receptor

Chain of Histamine H4 receptor (Q9H3N8 whole entry): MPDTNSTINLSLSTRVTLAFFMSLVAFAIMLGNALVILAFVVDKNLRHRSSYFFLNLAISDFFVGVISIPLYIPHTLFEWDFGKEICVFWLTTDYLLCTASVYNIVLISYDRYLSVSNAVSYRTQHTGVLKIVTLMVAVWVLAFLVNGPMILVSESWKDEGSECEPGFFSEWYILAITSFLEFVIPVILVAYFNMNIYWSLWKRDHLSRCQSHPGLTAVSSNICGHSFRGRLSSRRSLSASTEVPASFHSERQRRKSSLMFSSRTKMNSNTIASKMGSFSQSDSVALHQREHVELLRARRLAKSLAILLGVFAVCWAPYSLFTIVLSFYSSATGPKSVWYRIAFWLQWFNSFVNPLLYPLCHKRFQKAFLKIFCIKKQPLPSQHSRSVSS

C[C@@H](N)Cc1c[nH]cn1 [CHEBI:73337] showed a Ki of 0.239 µM.
With NCCCc1c[nH]cn1 [Homohistamine] the Ki was 0.0347 µM.
